# Results published in paper PMC12846677 (Viruses, 2025).
# Several values for one entry are separate records, joined by “and”; a condition that tells them apart may be missing. Equal values may be shown once. Read-outs that look alike come from different tables or passages of the source.
# Experiments:
# [1] = system: HIV-1IIIB; test: Combined antiviral activity assay (p24 ELISA, CompuSyn); format: cell-based
# [2] = system: HIV-1KIZ011 (CRF07_BC); details: HIV-1KIZ011, PBMC, p24
# [3] = system: HIV-1IIIB; test: microbe, parasite or virus in culture; format: cell-based; details: Human immunodeficiency virus 1, MT4, MTT
# [4] = parameters: method as in CTR20240167; details: healthy adults, single-dose administration; ref CTR20240167; cited from earlier work
# [5] = system: HIV-1WAN (CRF01_AE); test: microbe, parasite or virus in culture; details: Human immunodeficiency virus 1, PBMC
# [6] = system: HIV-1_4755-5; test: microbe, parasite or virus in culture; details: Human immunodeficiency virus 1, C8166
# [7] = Cytotoxicity MTT assay in MT4 cells; format: cell-based; details: human
# [8] = system: HIV-1WAN (CRF01_AE); details: PBMC, p24
# [9] = system: pNL4-3gp41(36G) V38A, N42T; details: C8166, p24
# [10] = system: HIV-1IIIB; test: qPCR determination of Late-RT, 2-LTR and Alu-LTR in infected C8166 cells; format: cell-based; details: for Late-RT level versus positive control (PC) group: C8166, HIV-1IIIB MOI 0.5, 100 nM ACC017, 4-8 h; for 2-LTR level (nuclear entry): C8166, HIV-1IIIB MOI 0.5, 100 nM ACC017, 8, 12, 24 h; for Alu-LTR level (integrated provirus): C8166, HIV-1IIIB MOI 0.5, 100 nM ACC017, 24 h, nested PCR
# [11] = system: clinical isolated strains; test: microbe, parasite or virus in culture; format: cell-based; details: Human immunodeficiency virus 1, read-out: EC50 range
# [12] = system: HIV-1TC-1 (CRF01_AE); test: microbe, parasite or virus in culture; details: Human immunodeficiency virus 1, PBMC
# [13] = system: HIV-1IIIB; test: microbe, parasite or virus in culture; details: Human immunodeficiency virus 1, C8166, HIV-1IIIB
# [14] = system: drug-resistant strains; test: microbe, parasite or virus in culture; format: cell-based; details: Human immunodeficiency virus 1; panel of drug-resistant strains; read-out: EC50 range
# [15] = Cytotoxicity MTT assay in C8166 cells; format: cell-based; details: human
# [16] = system: HIV-1KIZ011 (CRF07_BC); test: microbe, parasite or virus in culture; details: Human immunodeficiency virus 1, PBMC
# [17] = system: HIV-1A17; test: microbe, parasite or virus in culture; details: Human immunodeficiency virus 1, C8166
# [18] = system: HIV-1IIIB
# [19] = system: NL4-3IN-R263K; test: microbe, parasite or virus in culture; format: cell-based; details: Human immunodeficiency virus 1
# [20] = system: HIV-1_4755-5; details: HIV-1_4755-5, C8166, p24
# [21] = system: HIV-1TC-1 (CRF01_AE); details: HIV-1TC-1, PBMC, p24
# [22] = system: HIV-1IIIB; test: HIV-1IIIB-induced cytopathic effect (syncytia counting) in C8166 cells; details: for EC50: Human immunodeficiency virus 1, C8166
# [23] = system: NL4-3; test: microbe, parasite or virus in culture; format: cell-based; details: Human immunodeficiency virus 1, NL43; NL4-3, p24
# [24] = system: HIV-1A17; details: HIV-1A17, C8166, p24
# [25] = molecular target: HIV-1 mutant N155H integrase (Human immunodeficiency virus type 1 group M subtype B, UniProt P04585, N1302H); test: biochemical; details: HIV-1N155H integrase, mean n = 4
# [26] = Cytotoxicity MTT assay in PBMCs; format: cell-based; details: human, peripheral blood mononuclear cells (PBMCs), PBMC
# [27] = system: HIV-1DRACC017; test: microbe, parasite or virus in culture; format: cell-based; details: for EC50: Human immunodeficiency virus 1, HIV-1DRACC017, p24; for FC (Fold Change) EC50 (HIV-1DRACC017)/EC50 (HIV-1IIIB): p24
# [28] = p24 (Table 4, resistance study)
smiles,measurement,setting,value
"CC(C)OC(=O)[C@H](C)N[P@](=O)(CO[C@H](C)Cn1cnc2c(N)ncnc21)Oc1ccccc1 [TAF, Tenofovir alafenamide]",DRI Value ED75,[1]; combination ACC017 + FTC + TAF,4.78
same,DRI Value ED90,[1]; combination ACC017 + FTC + TAF,6.99
same,DRI Value ED95,[1]; combination ACC017 + FTC + TAF,8.96
same,DRI Value ED75,[1]; combination DTG + FTC + TAF,4.40
same,DRI Value ED90,[1]; combination DTG + FTC + TAF,6.33
same,DRI Value ED95,[1]; combination DTG + FTC + TAF,8.18
C[C@H]1N2C(=O)c3c(O)c(=O)c(C(=O)NCc4ccc(F)cc4F)cn3C[C@@H]2OCC12CC2 [ACC017],SI (CC50/EC50),[2],"46,181.82"
same,EC50,[3],0.05147 ± 2e-05 nM
same,Safety and tolerability,[4],favorable safety and tolerability profile
same,EC50,[5],1.78 ± 0.29 nM
same,EC50,[6],9.12 ± 2.31 nM
same,CC50 at 3 d,[7],24800 ± 80 nM
same,SI (CC50/EC50),[8],8561.80
same,EC50,[9],0.34 ± 0.09 nM
same,SI (CC50/EC50),[9],"59,911.76"
same,Late-RT level versus positive control (PC) group,[10],no significant difference compared with the PC group
same,2-LTR level (nuclear entry),[10],unable to block the nuclear entry process
same,Alu-LTR level (integrated provirus),[10],significantly reduced
same,EC50,[11],0.11 to 1.78 nM
same,EC50,[12],0.11 ± 0.06 nM
same,EC50,"[13]; C8166, p24 (Table 1)",0.59 ± 0.09 nM
same,EC50,"[13]; C8166, p24, 20% human serum",8.28 ± 2.02 nM
same,EC50,[13]; [28],1.25 ± 0.48 nM
same,EC50,[14],0.34 to 9.12 nM
same,CC50 at 3 d,[15],20370 ± 100 nM
same,DRI Value ED75,[1]; combination ACC017 + 3TC,5.25
same,DRI Value ED90,[1]; combination ACC017 + 3TC,9.07
same,DRI Value ED95,[1]; combination ACC017 + 3TC,13.15
same,DRI Value ED75,[1]; combination ACC017 + ACC007,4.07
same,DRI Value ED90,[1]; combination ACC017 + ACC007,6.48
same,DRI Value ED95,[1]; combination ACC017 + ACC007,8.97
same,DRI Value ED75,[1]; combination ACC017 + ACC017,1.77 and 3.46
same,DRI Value ED90,[1]; combination ACC017 + ACC017,2.06 and 2.77
same,DRI Value ED95,[1]; combination ACC017 + ACC017,2.32 and 2.42
same,DRI Value ED75,[1]; combination ACC017 + DTG,2.89
same,DRI Value ED90,[1]; combination ACC017 + DTG,2.45
same,DRI Value ED95,[1]; combination ACC017 + DTG,2.27
same,DRI Value ED75,[1]; combination ACC017 + FTC + TAF,4.62
same,DRI Value ED90,[1]; combination ACC017 + FTC + TAF,6.79
same,DRI Value ED95,[1]; combination ACC017 + FTC + TAF,9.05
same,EC50,[16],0.33 ± 0.06 nM
same,EC50,[17],8.51 ± 0.25 nM
same,SI (CC50/EC50),"[18]; C8166, p24","34,525.42"
same,Fold increase of EC50 in the presence of 20% human serum,"[18]; C8166, p24, with vs without 20% human serum",14.03 fold
same,EC50,[19]; read-out: EC50,28.1 ± 4.22 nM
same,SI (CC50/EC50),[20],2233.55
same,SI (CC50/EC50),[21],"138,545.45"
same,SI (CC50/EC50),"[22]; HIV-1IIIB, C8166, syncytia","34,525.42"
same,EC50,[22],0.59 ± 0.09 nM
same,EC50,[23],1.7 ± 0.47 nM
same,SI (CC50/EC50),[24],2393.65
same,IC50,[25],9.91 nM
same,CC50 at 7 d,[26],15200 nM
same,EC50,[27],> 5000 nM
"Nc1nc(=O)n([C@@H]2CS[C@H](CO)O2)cc1F [FTC, Emtricitabine]",DRI Value ED75,[1]; combination ACC017 + FTC + TAF,7.82
same,DRI Value ED90,[1]; combination ACC017 + FTC + TAF,12.57
same,DRI Value ED95,[1]; combination ACC017 + FTC + TAF,17.41
same,DRI Value ED75,[1]; combination DTG + FTC + TAF,7.15
same,DRI Value ED90,[1]; combination DTG + FTC + TAF,12.20
same,DRI Value ED95,[1]; combination DTG + FTC + TAF,17.77
"Nc1ccn([C@@H]2CS[C@H](CO)O2)c(=O)n1 [3TC, Lamivudine]",EC50,[13]; [28],181 ± 41.5 nM
same,DRI Value ED75,[1]; combination ACC017 + 3TC,6.21
same,DRI Value ED90,[1]; combination ACC017 + 3TC,7.90
same,DRI Value ED95,[1]; combination ACC017 + 3TC,9.30
same,DRI Value ED75,[1]; combination DTG + 3TC,5.03
same,DRI Value ED90,[1]; combination DTG + 3TC,6.79
same,DRI Value ED95,[1]; combination DTG + 3TC,8.33
same,EC50,[19]; read-out: EC50,180 ± 38.5 nM
same,EC50,[23],198 ± 101 nM
same,EC50,[27],322 ± 34.6 nM
same,FC (Fold Change) EC50 (HIV-1DRACC017)/EC50 (HIV-1IIIB),[27],1.78
"O=C1Nc2ccc(Cl)cc2[C@@](C#CC2CC2)(C(F)(F)F)O1 [EFV, Efavirenz]",Late-RT level versus positive control (PC) group,[10],significantly lower than that in the PC group
same,2-LTR level (nuclear entry),[10],barely detected
same,Alu-LTR level (integrated provirus),[10],almost undetectable
same,EC50,[13]; [28],0.6 ± 0.18 nM
same,EC50,[19]; read-out: EC50,1.62 ± 0.31 nM
same,EC50,[23],1.51 ± 0.48 nM
same,EC50,[27],1.24 ± 0.22 nM
same,FC (Fold Change) EC50 (HIV-1DRACC017)/EC50 (HIV-1IIIB),[27],2.07
"CCn1c(C(=O)c2cc(C)cc(C#N)c2)c(C(C)C)c(=O)[nH]c1=O [ACC007, Ainuovirine]",DRI Value ED75,[1]; combination ACC017 + ACC007,3.77
same,DRI Value ED90,[1]; combination ACC017 + ACC007,6.12
same,DRI Value ED95,[1]; combination ACC017 + ACC007,8.66
same,DRI Value ED75,[1]; combination DTG + ACC007,4.66
same,DRI Value ED90,[1]; combination DTG + ACC007,7.34
same,DRI Value ED95,[1]; combination DTG + ACC007,10.16
"C[C@@H]1CCO[C@H]2Cn3cc(C(=O)NCc4ccc(F)cc4F)c(=O)c(O)c3C(=O)N12 [DTG, Dolutegravir]",EC50,[3],0.05144 ± 0.00014 nM
same,EC50,[5],8.23 ± 0.2 nM
same,EC50,[6],9.96 ± 2.78 nM
same,CC50 at 3 d,[7],24910 ± 10 nM
same,EC50,[9],1.95 ± 0.12 nM
same,Late-RT level versus positive control (PC) group,[10],no significant difference compared with the PC group
same,2-LTR level (nuclear entry),[10],unable to block the nuclear entry process
same,Alu-LTR level (integrated provirus),[10],significantly reduced
same,EC50,[12],0.31 ± 0.18 nM
same,EC50,"[13]; C8166, p24 (Table 1)",0.64 ± 0.07 nM
same,EC50,"[13]; C8166, p24, 20% human serum",33.6 ± 5.9 nM
same,EC50,[13]; [28],1.18 ± 0.15 nM
same,CC50 at 3 d,[15],20340 ± 70 nM
same,DRI Value ED75,[1]; combination ACC017 + DTG,1.40
same,DRI Value ED90,[1]; combination ACC017 + DTG,1.40
same,DRI Value ED95,[1]; combination ACC017 + DTG,1.60
same,DRI Value ED75,[1]; combination DTG + 3TC,3.00
same,DRI Value ED90,[1]; combination DTG + 3TC,4.01
same,DRI Value ED95,[1]; combination DTG + 3TC,4.98
same,DRI Value ED75,[1]; combination DTG + ACC007,3.00
same,DRI Value ED90,[1]; combination DTG + ACC007,4.13
same,DRI Value ED95,[1]; combination DTG + ACC007,5.21
same,DRI Value ED75,[1]; combination DTG + FTC + TAF,3.25
same,DRI Value ED90,[1]; combination DTG + FTC + TAF,4.37
same,DRI Value ED95,[1]; combination DTG + FTC + TAF,5.41
same,EC50,[16],0.28 ± 0.03 nM
same,EC50,[17],4.78 ± 5.13 nM
same,EC50,[19],32.2 ± 3.74 nM
same,EC50,[22],0.73 ± 0.02 nM
same,EC50,[23],2.41 ± 0.43 nM
same,CC50 at 7 d,[26],14600 nM
same,EC50,[27],> 5000 nM
